Assay results as given in ChEMBL document CHEMBL4619816, “GSK973 Is an Inhibitor of the Second Bromodomains (BD2s) of the Bromodomain and Extra-Terminal (BET) Family” (ACS Med Chem Lett, 2020).
Converted amounts (≈) assume the structure as drawn.

Columns and labels:
[1] = Chromatographic hydrophobicity index, log D of the compound in pH 7.4 ammonium acetate buffer/acetonitrile gradient by HPLC analysis; type: physicochemical
[2] = biological target: Bromodomain-containing protein 4 (Homo sapiens, UniProt O60885, Y97A); experiment: Displacement of Alexa Fluor 647 labelled ligand from His6-tagged BRD4 BD2 (1 to 477 residues)/BD1 Y97A mutant (unknown origin) after 30 mins by TR-FRET assay
[3] = biological target: Bromodomain-containing protein 4 (Homo sapiens, UniProt O60885, Y390A); experiment: Displacement of Alexa Fluor 647 labelled ligand from His6-tagged BRD4 BD1 (1 to 477 residues)/BD2 Y390A mutant (unknown origin) after 30 mins by TR-FRET assay
[4] = system: Bromodomain-containing protein 4 (Homo sapiens), O60885 [UNDEFINED MUTATION]; experiment: Selectivity index, ratio of IC50 for displacement of Alexa Fluor 647 labelled ligand from His6-tagged BRD4 BD1 (1 to 477 residues)/BD2 Y390A mutant (unknown origin) to IC50 for displacement of Alexa Fluor 647 labelled ligand from His6-tagged BRD4 BD2 (1 to 477 residues)/BD1 Y97A mutant (unknown origin)
[5] = Volume of distribution at steady state in Wistar Han rat at 1 mg/kg administered as iv infusion for 1 hr and measured up to 7 hrs by LC-MS/MS analysis; type: ADME, organism-based; settings: in vivo, read-out: Vdss
[6] = Permeability of compound by artificial membrane assay; type: ADME; settings: PAMPA; read-out: permeability
[7] = Oral bioavailability in Wistar Han rat at 3 mg/kg administered via gavage and measured up to 7 hrs by LC-MS/MS analysis; type: ADME, organism-based; settings: in vivo
[8] = Clearance in Wistar Han rat hepatocytes assessed as per gram tissue at 0.5 uM by LC-MS/MS analysis; type: ADME, cell-based, Hepatocyte
[9] = Renal clearance in Wistar Han rat at 1 mg/kg administered as iv infusion for 1 hr and measured up to 7 hrs by LC-MS/MS analysis; type: ADME, organism-based; settings: in vivo
[10] = Clearance in Wistar Han rat at 1 mg/kg administered as iv infusion for 1 hr and measured up to 7 hrs by LC-MS/MS analysis; type: ADME, organism-based; settings: in vivo
[11] = Half life in Wistar Han rat at 1 mg/kg administered as iv infusion for 1 hr and measured up to 7 hrs by LC-MS/MS analysis; type: ADME, organism-based; settings: in vivo
Blood = experiment: Inhibition of LPS-induced MCP1 production in human whole blood preincubated for 30 mins followed by LPS addition measured after 24 hrs by immuno assay; type: functional, tissue-based
PBMC = experiment: Inhibition of LPS-induced MCP1 production in human PBMC; type: functional, cell-based
[12] = Solubility of compound by CLND method; type: physicochemical
[13] = Clearance in human pooled hepatocytes assessed as per gram tissue at 0.5 uM by LC-MS/MS analysis; type: ADME, cell-based, Hepatocyte
serum albumin = serum albumin (Homo sapiens, UniProt P02768); experiment: Binding affinity to human serum albumin; type: ADME; settings: read-out: PB (converted)
[14] = Clearance in Beagle dog hepatocytes assessed as per gram tissue at 0.5 uM measured up to 2 hrs by LC-MS/MS analysis; type: ADME, cell-based, Canis lupus familiaris, Hepatocyte
[15] = Clearance in human pooled hepatocytes assessed as per gram tissue at 0.5 uM measured up to 2 hrs by LC-MS/MS analysis; type: ADME, cell-based, Hepatocyte
[16] = Clearance in Wistar Han rat hepatocytes assessed as per gram tissue at 0.5 uM measured up to 1 hr by LC-MS/MS analysis; type: ADME, cell-based, Hepatocyte
[17] = Clearance in Beagle dog hepatocytes assessed as per gram tissue at 0.5 uM measured up to 1 hr by LC-MS/MS analysis; type: ADME, cell-based, Canis lupus familiaris, Hepatocyte

serum albumin, sequence (P02768 whole entry): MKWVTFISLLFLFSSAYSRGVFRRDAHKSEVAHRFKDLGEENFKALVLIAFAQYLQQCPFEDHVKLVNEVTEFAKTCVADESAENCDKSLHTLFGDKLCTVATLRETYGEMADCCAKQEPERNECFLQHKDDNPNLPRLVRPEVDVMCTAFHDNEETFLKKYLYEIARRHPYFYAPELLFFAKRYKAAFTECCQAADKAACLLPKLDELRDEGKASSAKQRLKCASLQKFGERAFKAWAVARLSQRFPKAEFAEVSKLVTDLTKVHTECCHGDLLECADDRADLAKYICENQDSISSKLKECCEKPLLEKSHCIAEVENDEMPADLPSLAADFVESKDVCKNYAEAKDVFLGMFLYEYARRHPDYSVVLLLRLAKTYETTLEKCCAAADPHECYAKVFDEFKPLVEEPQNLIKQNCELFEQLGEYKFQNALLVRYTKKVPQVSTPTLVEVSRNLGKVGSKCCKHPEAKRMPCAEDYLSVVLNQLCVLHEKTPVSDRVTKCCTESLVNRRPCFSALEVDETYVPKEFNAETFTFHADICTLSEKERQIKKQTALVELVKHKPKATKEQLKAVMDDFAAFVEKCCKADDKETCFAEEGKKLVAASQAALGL

SMILES	CHI [1]	IC50 [2]	IC50 [3]	Ratio IC50 [4]	IC50 (Blood)	further results
CNC(=O)c1cc(C(=O)NCCO)cn(Cc2ccccc2)c1=O	1.9					
CNC(=O)c1cc(C(N)=O)cc2c1O[C@H](C)[C@H]2c1ccccc1	3.28	100 nM	15800 nM	160		
CNC(=O)c1cccc2c1O[C@@H](c1ccccc1)[C@@H]2C		10000 nM		5		
CCNC(=O)c1cc(C(=O)NC)c2c(c1)[C@H](c1ccccc1)[C@@H](C)O2	4.11	39.8 nM	39800 nM	1000		
CNC(=O)c1cc(C(=O)NCCOC)cc2c1O[C@H](C)[C@H]2c1ccccc1	3.81	200 nM	39800 nM	200		
CCNC(=O)c1cc(C(=O)NC)c(=O)n(Cc2ccccc2)c1	2.99					
CNC(=O)c1cc(C(=O)NCCOC)cn(Cc2ccccc2)c1=O	2.74					
CNC(=O)c1cccc2c1O[C@H](C)[C@H]2c1ccccc1 (single isomer, unassigned)		794 nM		25		
CNC(=O)c1cc(C(=O)NC)c(=O)n(Cc2ccccc2)c1	2.38					
CNC(=O)c1cc(C(=O)NC)c2c(c1)[C@H](c1ccccc1)[C@@H](C)O2	3.55	31.6 nM	12600 nM	400		
CNC(=O)c1cc(C(=O)NC2CCOC2)cc2c1O[C@H](CF)[C@H]2c1ccccc1 (stereo partly specified)	3.51	158 nM	> 50100 nM	> 300		
CNC(=O)c1cc(C(=O)NCCC[C@H]2OC[C@H](N)CO2)cc2c1O[C@H](CF)[C@H]2c1ccccc1	2.94				126 nM	Vd [5]: 2.1 L/kg; Papp [6]: 4.5 ×10⁻⁶ cm/s; bioavailability [7]: 3%; CLH [8]: 1.39 mL/min/g; CL renal [9]: 10 mL/min/kg; clearance [10]: 73 mL/min/kg; half-life [11]: 36 min
CNC(=O)c1cc(C(=O)NC2CC2)cn(Cc2ccccc2)c1=O [GSK620]	3.07					
CNC(=O)c1cc(C(=O)NC2CC2)cc2c1O[C@H](C)[C@H]2c1ccccc1	4.24			1600	200 nM	Vd [5]: 2.3 L/kg; Papp [6]: 44 ×10⁻⁶ cm/s; IC50 (PBMC): 6.31 nM; solubility kinetic [12]: 137 µg/mL (≈ 391 µM); CLH [8]: 2.48 mL/min/g; CLH [13]: 1.42 mL/min/g; fraction unbound (serum albumin): 0.11; CL renal [9]: 0.2 mL/min/kg; clearance [10]: 90 mL/min/kg; half-life [11]: 24 min
CNC(=O)c1cc(C(N)=O)cn(Cc2ccccc2)c1=O	2.03					
CNC(=O)c1cc(C(=O)NCCO)cc2c1O[C@H](C)[C@H]2c1ccccc1	3.12	158 nM	> 50100 nM	> 320		
CNC(=O)c1cc(C(=O)N[C@@H]2C[C@H]2CO)cc2c1O[C@H](CF)[C@H]2c1ccccc1	3		15800 nM	800	200 nM	Vd [5]: 1.7 L/kg; Papp [6]: 7.3 ×10⁻⁶ cm/s; bioavailability [7]: 15%; solubility kinetic [12]: 114 µg/mL (≈ 286 µM); CLH [8]: 1.65 mL/min/g; CLH [14]: < 0.65 mL/min/g; CL renal [9]: 4 mL/min/kg; clearance [10]: 98 mL/min/kg; half-life [11]: 30 min; CLH [15]: < 0.45 mL/min/g
CNC(=O)c1cc(C(=O)NC2CC2)cc2c1O[C@H](CO)[C@H]2c1ccccc1	2.53				794 nM	Vd [5]: 1.4 L/kg; Papp [6]: 26.6 ×10⁻⁶ cm/s; bioavailability [7]: 2%; solubility kinetic [12]: > 177 µg/mL; CLH [8]: < 0.8 mL/min/g; CLH [13]: < 0.45 mL/min/g; fraction unbound (serum albumin): 0.21; CL renal [9]: 23 mL/min/kg; clearance [10]: 74 mL/min/kg; half-life [11]: 24 min
CNC(=O)c1cccc2c1O[C@@H](C)[C@H]2c1ccccc1		2510 nM		10		
CNC(=O)c1cc(C(=O)NCC[C@@H]2CNCCO2)cc2c1O[C@H](CF)[C@H]2c1ccccc1	2.18	39.8 nM	50100 nM	1200	158 nM	CLH [8]: 1.28 mL/min/g; CLH [14]: < 0.65 mL/min/g; CLH [15]: < 0.45 mL/min/g
CNC(=O)c1cc(C(=O)N[C@H]2C[C@H](O)C2)cc2c1O[C@H](CF)[C@H]2c1ccccc1	2.92	79.4 nM	31600 nM	400	316 nM	CLH [8]: 1.84 mL/min/g; CLH [13]: < 0.45 mL/min/g
CNC(=O)c1cc(C(=O)N[C@H]2C[C@@H]2C)cc2c1O[C@H](CF)[C@H]2c1ccccc1	4.53				100 nM	
CNC(=O)c1cc(C(=O)NC)c2c(c1)[C@H](c1ccccc1)[C@@H](CF)O2	3.34				200 nM	CLH [16]: 3.02 mL/min/g; CLH [13]: < 0.45 mL/min/g
CNC(=O)c1cc(C(N)=O)cc2c1O[C@H](CF)[C@H]2c1ccccc1	2.89					
CNC(=O)c1cc(C(=O)NC2CC2)cc2c1O[C@H](CF)[C@H]2c1ccccc1	3.94				200 nM	CLH [16]: 3.2 mL/min/g; CLH [13]: < 0.45 mL/min/g; CLH [17]: < 1.26 mL/min/g
